According to ChEMBL document CHEMBL4831517, “Optimization of a Series of RIPK2 PROTACs” (J Med Chem, 2021):
In brackets after ≈: the same amount, converted by molar mass. Activity calls are given as the source filed them. The calls are words filed in the database; no cut-off is given here.

Experiments:
[1] = target: Receptor-interacting serine/threonine-protein kinase 2 (Homo sapiens, UniProt O43353); test: Inhibition of full length His-tagged RIPK2 (unknown origin) expressed in baculovirus expression system using fluorescent labelled ATP competitive ligand by fluorescent polarization based binding assay
[2] = target: E3 ubiquitin-protein ligase XIAP/Receptor-interacting serine/threonine-protein kinase 2 (Homo sapiens, UniProt O43353+P98170); test: Protac activity at IAP/RIPK2 in human whole blood assessed as inhibition of MDP-induced TNFalpha production by ELISA; type: tissue-based
[3] = Solubility of the compound by chemiluminescent nitrogen detection (CLND) method; type: physicochemical
[4] = target: E3 ubiquitin-protein ligase XIAP/Receptor-interacting serine/threonine-protein kinase 2 (Homo sapiens, UniProt P98170+O43353); test: Protac activity at IAP/RIPK2 in human THP-1 cells assessed as induction of RIPK2 degradation by measuring decrease in protein level incubated for 18 hrs by capillary-based immunoassay; type: cell-based
[5] = Lipophilicity, logD of compound at pH 7.4 by Chromatography; type: physicochemical; conditions: buffer
Rattus norvegicus [6] = test: (§1) Ex vivo protac activity at IAP/RIPK2 in rat assessed as inhibition of MDP-induced TNFalpha release at 0.5 mg/kg, sc measured for 8 to 48 hrs; type: functional; conditions: time 8-48 hrs
[7] = target: E3 ubiquitin-protein ligase XIAP (Homo sapiens, UniProt P98170); test: Binding affinity to human His-thr XIAP BIR3 (241 to 356) domain expressed in Escherichia coli measured after 105 mins in dark by time-resolved fluorescence laser-equipped multimode plate reader
Rattus norvegicus [8] = test: (§2) Ex vivo protac activity at IAP/RIPK2 in rat assessed as RIPK2 degradation at 0.5 mg/kg, sc measured for 8 to 48 hrs; type: functional; conditions: time 8-48 hrs
[9] = target: T1, Protein cereblon/Receptor-interacting serine/threonine-protein kinase 2 (Homo sapiens, UniProt O43353+Q96SW2); test: Protac activity at CRBN/RIPK2 in human whole blood assessed as inhibition of MDP-induced TNFalpha production by ELISA; type: tissue-based
[10] = target: T1, Protein cereblon/Receptor-interacting serine/threonine-protein kinase 2; test: Protac activity at CRBN/RIPK2 in human THP-1 cells assessed as induction of RIPK2 degradation by measuring decrease in protein level incubated for 18 hrs by capillary-based immunoassay; type: cell-based
[11] = Metabolic stability in rat liver microsomes assessed as intrinsic clearance using pH 7.4 phosphate buffer incubated for 45 mins by LC-MS/MS analysis; type: ADME, Microsome; conditions: pH 7.4, 0.75 h
[12] = Metabolic stability in human liver microsomes assessed as intrinsic clearance using pH 7.4 phosphate buffer incubated for 45 mins by LC-MS/MS analysis; type: ADME, Microsome; conditions: pH 7.4, 0.75 h
[13] = Binding affinity to human His-thr XIAP BIR2 (124 to 240) domain expressed in Escherichia coli measured after 105 mins in dark by time-resolved fluorescence laser-equipped multimode plate reader
[14] = as §1; type: functional; set-up: scale not given: the % may be the effect or the level left; conditions: time 8-48 hrs
[15] = as §2; type: functional; conditions: time 8-48 hrs
[16] = target: T2, von Hippel-Lindau disease tumor suppressor/Receptor-interacting serine/threonine-protein kinase 2 (Homo sapiens, UniProt O43353+P40337); test: Protac activity at VHL/RIPK2 in human whole blood assessed as inhibition of MDP-induced TNFalpha production by ELISA; type: tissue-based
[17] = target: T2, von Hippel-Lindau disease tumor suppressor/Receptor-interacting serine/threonine-protein kinase 2; test: Protac activity at VHL/RIPK2 in human THP-1 cells assessed as induction of RIPK2 degradation by measuring decrease in protein level incubated for 16 hrs by Western blot analysis; type: cell-based

E3 ubiquitin-protein ligase XIAP/Receptor-interacting serine/threonine-protein kinase 2 (Homo sapiens, UniProt O43353+P98170), sequence (P98170 whole entry): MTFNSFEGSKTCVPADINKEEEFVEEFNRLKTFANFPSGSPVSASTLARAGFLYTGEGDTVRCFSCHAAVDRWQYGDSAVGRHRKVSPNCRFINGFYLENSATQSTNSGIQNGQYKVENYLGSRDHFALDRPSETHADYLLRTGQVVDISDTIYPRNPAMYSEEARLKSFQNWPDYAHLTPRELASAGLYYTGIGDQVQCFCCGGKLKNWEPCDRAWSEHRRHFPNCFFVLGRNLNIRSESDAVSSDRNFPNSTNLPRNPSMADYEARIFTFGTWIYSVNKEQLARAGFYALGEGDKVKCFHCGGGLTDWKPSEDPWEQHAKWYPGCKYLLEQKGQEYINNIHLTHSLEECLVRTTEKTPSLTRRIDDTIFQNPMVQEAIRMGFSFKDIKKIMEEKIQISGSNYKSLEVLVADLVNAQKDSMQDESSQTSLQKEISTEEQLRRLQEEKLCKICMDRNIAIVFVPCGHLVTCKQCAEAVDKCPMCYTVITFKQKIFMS
E3 ubiquitin-protein ligase XIAP/Receptor-interacting serine/threonine-protein kinase 2 (Homo sapiens, UniProt O43353+P98170), sequence (O43353 whole entry): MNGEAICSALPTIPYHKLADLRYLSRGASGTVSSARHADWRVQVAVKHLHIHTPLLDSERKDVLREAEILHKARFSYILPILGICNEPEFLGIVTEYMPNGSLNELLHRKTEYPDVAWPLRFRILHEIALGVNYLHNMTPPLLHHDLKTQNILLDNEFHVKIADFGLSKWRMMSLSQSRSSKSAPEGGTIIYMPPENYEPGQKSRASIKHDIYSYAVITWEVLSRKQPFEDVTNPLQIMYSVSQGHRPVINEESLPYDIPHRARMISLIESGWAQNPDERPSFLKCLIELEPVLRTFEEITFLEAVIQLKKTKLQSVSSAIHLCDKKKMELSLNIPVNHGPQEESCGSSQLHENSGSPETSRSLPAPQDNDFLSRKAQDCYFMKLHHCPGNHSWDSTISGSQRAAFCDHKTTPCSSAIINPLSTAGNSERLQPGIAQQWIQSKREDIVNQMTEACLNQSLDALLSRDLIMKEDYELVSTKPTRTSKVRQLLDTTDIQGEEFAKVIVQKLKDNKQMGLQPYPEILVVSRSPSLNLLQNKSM
E3 ubiquitin-protein ligase XIAP, sequence (P98170 whole entry): as the sequence (P98170 whole entry) above
Receptor-interacting serine/threonine-protein kinase 2, sequence (O43353 whole entry): as the sequence (O43353 whole entry) above
T1 sequence (O43353 whole entry): as above
T1 sequence (Q96SW2 whole entry): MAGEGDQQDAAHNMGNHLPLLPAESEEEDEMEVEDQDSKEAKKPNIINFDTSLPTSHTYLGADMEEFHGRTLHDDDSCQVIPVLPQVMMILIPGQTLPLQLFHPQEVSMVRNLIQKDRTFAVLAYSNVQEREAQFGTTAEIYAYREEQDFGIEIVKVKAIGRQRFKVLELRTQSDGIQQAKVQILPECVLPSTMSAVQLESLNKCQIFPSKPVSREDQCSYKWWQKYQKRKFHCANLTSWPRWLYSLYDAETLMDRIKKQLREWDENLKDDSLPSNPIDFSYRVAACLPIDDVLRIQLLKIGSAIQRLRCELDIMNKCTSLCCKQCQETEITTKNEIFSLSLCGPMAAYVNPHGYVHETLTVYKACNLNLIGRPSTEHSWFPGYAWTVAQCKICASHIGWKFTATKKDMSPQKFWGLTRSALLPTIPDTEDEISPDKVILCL
T2 sequence (O43353 whole entry): as the sequence (O43353 whole entry) above
T2 sequence (P40337 whole entry): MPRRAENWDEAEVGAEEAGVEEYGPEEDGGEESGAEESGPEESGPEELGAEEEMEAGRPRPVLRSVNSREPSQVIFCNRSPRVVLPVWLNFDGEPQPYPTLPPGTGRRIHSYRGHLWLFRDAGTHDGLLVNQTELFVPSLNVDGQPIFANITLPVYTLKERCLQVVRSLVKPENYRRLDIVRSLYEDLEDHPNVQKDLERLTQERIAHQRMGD
E3 ubiquitin-protein ligase XIAP/Receptor-interacting serine/threonine-protein kinase 2 (Homo sapiens, UniProt P98170+O43353), sequence (P98170 whole entry): as the sequence (P98170 whole entry) above
E3 ubiquitin-protein ligase XIAP/Receptor-interacting serine/threonine-protein kinase 2 (Homo sapiens, UniProt P98170+O43353), sequence (O43353 whole entry): as the sequence (O43353 whole entry) above

Q: Which IC50 [1] does the source give for Cc1[nH]nc(Nc2ncnc3cc(OCCCN4CCN(C(=O)c5cnc(N6CCN(C[C@H]7CN[C@H](C)CN7CC(=O)N7CC(C)(C)c8ncc(Cc9ccc(F)cc9)cc87)[C@H](C)C6)nc5)CC4)c(S(=O)(=O)C(C)(C)C)cc23)c1C here?
A: 25.1 nM

Q: What about the IC50 [2] of the same compound?
A: 2.51 nM

Q: Which results are given for CN[C@@H](C)C(=O)N[C@H](C(=O)N1Cc2cc(OCCOCCOCCOCCOc3cc4nccc(Nc5ccc6scnc6c5)c4cc3S(=O)(=O)C(C)(C)C)ccc2C[C@@H]1C(=O)N[C@@H]1CCCc2ccccc21)C(C)(C)C?
A: solubility kinetic [3]: 21 µM (≈ 22.9 µg/mL); DC50 [4]: 0.2 nM; IC50 [1]: 10 nM; chromatographic logD [5]: 6.1; IC50 [2]: 10 nM

Q: For CN[C@@H](C)C(=O)N[C@H](C(=O)N1CCC[C@H]1c1nc(C(=O)c2ccc(F)cc2)cs1)C1CCN(C(=O)c2cnc(N3CCC(CCCOc4cc5ncnc(Nc6n[nH]c(C)c6C)c5cc4S(=O)(=O)C(C)(C)C)CC3)nc2)CC1, which IC50 [1] is on record?
A: 31.6 nM

Q: And the IC50 [2]?
A: 3.16 nM

Q: For CN[C@@H](C)C(=O)N[C@H](C(=O)N1C[C@@H](NC(=O)c2cnc(N3CCN(CCCOc4cc5ncnc(Nc6n[nH]c(C)c6C)c5cc4S(=O)(=O)C(C)(C)C)CC3)cn2)CC1C(=O)NC1CCCc2ccccc21)C(C)(C)C (some centres undefined), which IC50 [1] is on record?
A: 12.6 nM

Q: With CN[C@H](C)C(=O)N[C@H](C(=O)N1C[C@@H](NC(=O)c2cnc(N3CCN(CCCOc4cc5ncnc(Nc6n[nH]c(C)c6C)c5cc4S(=O)(=O)C(C)(C)C)CC3)cn2)C[C@H]1C(=O)Nc1c(F)cccc1F)C(C)(C)C as the compound, how does the Activity (Rattus norvegicus [6]) read?
A: Active

Q: What about the IC50 [7] of the same compound?
A: 6310 nM

Q: What about the Activity (Rattus norvegicus [8]) of the same compound?
A: Active

Q: What does the source list for CN[C@@H](C)C(=O)N[C@H](C(=O)N1CCC[C@H]1c1nc(C(=O)c2ccc(F)cc2)cs1)C1CCN(C(=O)COCCOCCOCCOCCOc2cc3nccc(Nc4ccc5scnc5c4)c3cc2S(=O)(=O)C(C)(C)C)CC1?
A: solubility kinetic [3]: 308 µM (≈ 348 µg/mL); IC50 [1]: 5.01 nM; chromatographic logD [5]: 4.5; IC50 [2]: 10 nM

Q: Which results are given for CN[C@@H](C)C(=O)N[C@H](C(=O)N1CCC[C@H]1c1nc(C(=O)c2ccc(F)cc2)cs1)C1CCN(C(=O)c2cnc(N3CCC(CCOc4cc5ncnc(Nc6n[nH]c(C)c6C)c5cc4S(=O)(=O)C(C)(C)C)CC3)nc2)CC1?
A: IC50 [1]: 39.8 nM; IC50 [2]: 15.8 nM

Q: For CN[C@@H](C)C(=O)N[C@H](C(=O)N1CCC[C@H]1c1nc(C(=O)c2ccc(F)cc2)cs1)C1CCN(C(=O)c2cnc(N3CCN(CCCOc4cc5ncnc(Nc6n[nH]c(C)c6C)c5cc4S(=O)(=O)C(C)(C)C)CC3)nc2)CC1, which IC50 [1] is on record?
A: 7.94 nM

Q: And the IC50 [2]?
A: 2 nM

Q: For CN[C@@H](C)C(=O)N[C@H]1CN(C(=O)c2cnc(N3CCN(CCCOc4cc5ncnc(Nc6n[nH]c(C)c6C)c5cc4S(=O)(=O)C(C)(C)C)CC3)cn2)CC[C@H]2CC[C@@H](C(=O)NC3CCCc4ccccc43)N2C1=O (some centres undefined), which IC50 [1] is on record?
A: 6.31 nM

Q: With CC(C)(C)S(=O)(=O)c1cc2c(Nc3ccc4scnc4c3)ccnc2cc1OCCOCCOCCOCCOCC(=O)Nc1cccc2c1CN(C1CCC(=O)NC1=O)C2=O (centres undefined) as the compound, how does the IC50 [9] read?
A: 63.1 nM

Q: And the DC50 [10]?
A: 6.2 nM

Q: Which results are given for CN[C@@H](C)C(=O)N[C@H](C(=O)N1CCC[C@H]1c1nc(C(=O)c2ccc(F)cc2)cs1)C1CCN(C(=O)c2ccc(N3CCN(CCOc4cc5ncnc(Nc6n[nH]c(C)c6C)c5cc4S(=O)(=O)C(C)(C)C)CC3)nc2)CC1?
A: solubility kinetic [3]: > 304 µM; CLH [11]: 0.55 mL/min/g; IC50 [1]: 126 nM; CLH [12]: 1.17 mL/min/g; IC50 [2]: 10 nM

Q: Which results are given for CN[C@@H](C)C(=O)N[C@H](C(=O)N1CCC[C@H]1c1nc(C(=O)c2ccc(F)cc2)cs1)C1CCN(C(=O)c2cnc(N3CCN(CCOc4cc5ncnc(Nc6n[nH]c(C)c6C)c5cc4S(=O)(=O)C(C)(C)C)CC3)cn2)CC1?
A: solubility kinetic [3]: 271 µM (≈ 296 µg/mL); CLH [11]: < 0.46 mL/min/g; IC50 [1]: 158 nM; CLH [12]: 0.57 mL/min/g; IC50 [2]: 15.8 nM

Q: What does the source list for CN[C@@H](C)C(=O)N[C@H](C(=O)N1CCC[C@H]1c1nc(C(=O)c2ccc(F)cc2)cs1)C1CCN(C(=O)c2cnc(N3CCN(CCCOc4cc5ncnc(Nc6n[nH]c(C)c6C)c5cc4S(=O)(=O)C(C)(C)C)CC3)cn2)CC1?
A: pIC50 [13]: 5.8; Activity [14]: 100%; IC50 [1]: 12.6 nM; IC50 [7]: 39.8 nM; Activity [15]: >70%; IC50 [2]: 1.58 nM

Q: With CN[C@H](C)C(=O)N[C@@H](C(=O)N1C[C@@H](NC(=O)c2cnc(N3CCN(CCCOc4cc5ncnc(Nc6n[nH]c(C)c6C)c5cc4S(=O)(=O)C(C)(C)C)CC3)cn2)C[C@H]1c1nc(C(=O)c2ccc(F)cc2)cs1)C(C)(C)C as the compound, how does the IC50 [1] read?
A: 0.158 nM

Q: And the IC50 [2]?
A: 2.51 nM

Q: Which IC50 [1] does the source give for CN[C@@H](C)C(=O)N[C@H](C(=O)N1CCC[C@H]1c1nc(C(=O)c2ccc(F)cc2)cs1)C1CCN(C(=O)c2cnc(N3CCC(COc4cc5ncnc(Nc6n[nH]c(C)c6C)c5cc4S(=O)(=O)C(C)(C)C)CC3)nc2)CC1 here?
A: 10 nM

Q: And the IC50 [2]?
A: 25.1 nM

Q: For CC[C@@H](NC(=O)[C@@H]1C[C@H](NC(=O)COCCOCCOCCOCCOc2cc3nccc(Nc4ccc5scnc5c4)c3cc2S(=O)(=O)C(C)(C)C)CN1C(=O)[C@@H](NC(=O)[C@H](C)NC)C(C)(C)C)c1ccccc1, which solubility kinetic [3] is on record?
A: > 235 µM

Q: And the IC50 [1]?
A: 2 nM

Q: What about the chromatographic logD [5] of the same compound?
A: 5.6

Q: What about the IC50 [2] of the same compound?
A: 25.1 nM

Q: Which pIC50 [13] does the source give for Cc1[nH]nc(Nc2ncnc3cc(OCCCN4CCN(C(=O)c5cnc(N6CCN(C[C@H]7CN[C@H](C)CN7CC(=O)N7CC(C)(C)c8c7cc(Cc7ccc(F)cc7)c(=O)n8C)[C@H](C)C6)nc5)CC4)c(S(=O)(=O)C(C)(C)C)cc23)c1C here?
A: < 4

Q: And the IC50 [1]?
A: 7.94 nM

Q: And the IC50 [7]?
A: 12.6 nM

Q: What about the IC50 [2] of the same compound?
A: 6.31 nM

Q: Which results are given for CN[C@@H](C)C(=O)N[C@H](C(=O)N1CCC[C@H]1c1nc(C(=O)c2ccc(F)cc2)cs1)C1CCN(C(=O)c2ccc(N3CCN(CCCOc4cc5ncnc(Nc6n[nH]c(C)c6C)c5cc4S(=O)(=O)C(C)(C)C)CC3)cc2)CC1?
A: IC50 [1]: 31.6 nM; IC50 [2]: 12.6 nM

Q: Which IC50 [1] does the source give for CN[C@@H](C)C(=O)N[C@H](C(=O)N1CCC[C@H]1c1nc(C(=O)c2ccc(F)cc2)cs1)C1CCN(C(=O)COCCOCCOCCOCCOc2cc3ncnc(Nc4n[nH]c(C)c4C)c3cc2S(=O)(=O)C(C)(C)C)CC1 here?
A: 158 nM

Q: What about the IC50 [2] of the same compound?
A: 63.1 nM

Q: Which IC50 [9] does the source give for Cc1ncsc1-c1ccc(CNC(=O)[C@@H]2C[C@@H](O)CN2C(=O)[C@@H](NC(=O)COCCOCCOCCOCCOc2cc3nccc(Nc4ccc5scnc5c4)c3cc2S(=O)(=O)C(C)(C)C)C(C)(C)C)cc1 here?
A: 100 nM

Q: And the IC50 [16]?
A: 100 nM

Q: And the DC50 [17]?
A: 1.5 nM

Q: Which IC50 [1] does the source give for CN[C@@H](C)C(=O)N[C@H](C(=O)N1CCC[C@H]1c1nc(C(=O)c2ccc(F)cc2)cs1)C1CCN(C(=O)c2ccc(N3CCN(CCCOc4cc5ncnc(Nc6n[nH]c(C)c6C)c5cc4S(=O)(=O)C(C)(C)C)CC3)nc2)CC1 here?
A: 10 nM

Q: And the IC50 [2]?
A: 7.94 nM

Q: Which results are given for CN[C@@H](C)C(=O)N[C@H]1CN(C(=O)c2cnc(N3CCN(CCCOc4cc5ncnc(Nc6n[nH]c(C)c6C)c5cc4S(=O)(=O)C(C)(C)C)CC3)cn2)CC[C@H]2CC[C@@H](C(=O)N[C@@H]3CCCc4ccccc43)N2C1=O?
A: IC50 [1]: 0.1 nM; IC50 [2]: 3.16 nM

Q: Which IC50 [1] does the source give for CN[C@@H](C)C(=O)N[C@H](C(=O)N1Cc2cc(OCCOCCOCCOCCOc3cc4ncnc(Nc5n[nH]c(C)c5C)c4cc3S(=O)(=O)C(C)(C)C)ccc2CC1C(=O)N[C@@H]1CCCc2ccccc21)C(C)(C)C (single isomer, unassigned) here?
A: 398 nM

Q: What about the IC50 [2] of the same compound?
A: 31.6 nM

Q: What does the source list for CN[C@@H](C)C(=O)N[C@H](C(=O)N1CCC[C@H]1c1nc(C(=O)c2ccc(F)cc2)cs1)C1CCN(C(=O)c2cnc(N3CCN(CCOc4cc5ncnc(Nc6n[nH]c(C)c6C)c5cc4S(=O)(=O)C(C)(C)C)CC3)nc2)CC1?
A: solubility kinetic [3]: > 311 µM; CLH [11]: 0.48 mL/min/g; CLH [12]: 0.74 mL/min/g; IC50 [2]: 20 nM
